# Columns and labels:
# B. cereus β-lactamase [1] = target: B. cereus β-lactamase (Bacillus cereus, UniProt P04190); assay type: biochemical; details: substrate 100 µg/ml, 0.05 M phosphate buffer, pH 7.0, 25°C
# [2] = target: L6-lactamase (B. cereus) conjugate (Bacillus cereus, UniProt P04190); assay type: biochemical; details: pH 7
# [3] = target: Sigma penicillinase from E. cloacae (Enterobacter cloacae, UniProt P05364); assay: Specific activity of β-lactamases for cephalosporin substrates, spectrophotometric; assay type: biochemical; details: substrate 100 µg/ml, 0.05 M phosphate buffer, pH 7.0, 25°C
# Experimental: The specific activities of selected β-lactamases for ADR-ceph were examined. These enzymes were B. cereus β-lactamase, lactamase-L6 conjugate, Sigma penicillinase from E. cloacae (Sigma Chemical) and P99 cephalosporinase from E. cloacae. All enzymes were diluted to give protein concentrations of 0.20 ± 0.01 mg/ml (with respect to β-lactamase). Assays were performed spectrophotometrically to 0.05 M phosphate buffer, pH 7.0, at 25°C. Cephaloridine was used as a reference substrate for the enzymes.
# P99 cephalosporinase had the highest specific activity for both cephaloridine and ADR-ceph. […] The Sigma "penicillinase" had the lowest activity of all the preparations. […] The differences in activity is probably due to differences in purity between the two preparations.
# [4] = target: P99 cephalosporinase from E. cloacae (Enterobacter cloacae, UniProt P05364); assay type: biochemical; details: pH 7
# [5] = target: T1, BCP II (Bacillus cereus penicillinase) (Bacillus cereus, UniProt P04190); assay: Conversion of the cephalosporin-mitomycin prodrug by BCP II in PBS, followed by TLC; assay type: biochemical; details: 0.3 mg compound in PBS (1 mL), BCP II 10 µL (4.1 mg/mL)
# T1 sequence (P04190 31-257): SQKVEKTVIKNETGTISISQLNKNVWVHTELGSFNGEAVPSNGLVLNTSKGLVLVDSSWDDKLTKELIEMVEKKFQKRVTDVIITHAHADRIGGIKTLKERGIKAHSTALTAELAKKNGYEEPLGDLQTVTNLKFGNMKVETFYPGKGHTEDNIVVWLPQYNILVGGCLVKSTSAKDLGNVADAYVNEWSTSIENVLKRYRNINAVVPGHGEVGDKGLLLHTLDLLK
# Experimental: To a greyish blue solution of the title compound (0.3 mg) in PBS (1 mL) was added BCP II (Bacillus cereus penicillinase, 10 µL, protein concentration = 4.1 mg/mL). Immediately the color changed to blue.
# [6] = target: β-lactamase from B. cereus (Bacillus cereus, UniProt P04190); assay: Release of adriamycin from ADR-ceph in human plasma at 37°C, HPLC; assay type: biochemical; details: human plasma 37°C, ADR-ceph 572 µg/ml, β-lactamase 0.45 µg/ml
# Experimental: The ability of the purified β-lactamase from B. cereus and the lactamase-L6 conjugate to catalyze the release of adriamycin from ADR-ceph was evaluated in human plasma at 37°C.
# (§1) Stock solutions of the β-lactamase and lactamase-L6 conjugate were prepared in 0.05 M Hepes buffer (pH7). Aliquots of these stock solutions were added to solutions of ADR-ceph in human plasma thermostated at 37°C. The final concentration of ADR-ceph was 572 µg/ml in the β-lactamase experiment and 896 µg/ml in the L6-lactamase experiment; and the final concentrations of β-lactamase and L6-lactamase conjugate were 0.45 µg/ml and 5.4µg/ml, respectively. Aliquots were withdrawn periodically and were added to two volumes of cold methanol (4°C). The precipitated proteins were removed by centrifugation. The supernatants were analyzed by HPLC using a Waters Associates C18 Radial Pak cartridge (8x100 mm). The column was eluted at 2.0 mL/min with a mobile phase of 60% of 0.05 M ammonium phosphate (pH 6.5) containing 5% acetonitrile and 40% of a mixture of acetonitrile-water (80:20). The peaks were detected by uv at 254 nm. In these assays the respective retention times for adriamycin and ADR-ceph were 3.8 and 7.5 minutes.
# [7] = Stability of ADR-ceph in rat plasma at 37°C, HPLC; assay type: in vitro ADME
# Experimental: as §1
# (§2) Using the same HPLC assay described in Example 2.2.2 the respective half lives at 37°C of ADR-ceph in rat plasma, buffer at pH 7.4, and human plasma are 8, 20 and ≧ 12 hours (Figure 9).
# [8] = Stability of ADR-ceph in buffer at pH 7.4 at 37°C, HPLC; assay type: physicochemical; details: buffer at pH 7.4, 37°C
# Experimental: as §1, §2
# [9] = Stability of ADR-ceph in human plasma at 37°C, HPLC; assay type: in vitro ADME
# Experimental: as §1, §2
# [10] = target: T2, B. cereus β-lactamase (II) (Bacillus cereus, UniProt P04190); assay type: biochemical
# T2 sequence (P04190 31-257): T1 sequence (P04190 31-257)
# B. cereus β-lactamase [11] = target: T3, B. cereus β-lactamase (Bacillus cereus, UniProt P04190); assay type: biochemical; details: CM 50 µM in PBS at 37° C, 3 µg total protein/ml, partially purified enzyme
# T3 construct: purchased Sigma Chem. Co
# T3 sequence (P04190 31-257): T1 sequence (P04190 31-257)
# E. coli β-lactamase = assay: Hydrolysis of CM by commercially available β-lactamase in PBS at 37° C, HPLC; assay type: biochemical; details: CM 50 µM in PBS at 37° C, 3 µg total protein/ml, partially purified enzyme
# [12] = test system: human lung adenocarcinoma cell line, H2981
# Balb C nu/nu mice = details: mouse, in vivo, iv
# in vitro = details: mouse, plasma
# physchem = details: imdm cell growth medium
# H2981 lung cells = assay: In vitro cytotoxicity of CM with L6-β-lactamase conjugate, 3H-thymidine incorporation; details: cells exposed to L6-β-lactamase conjugate 1 hr at 37° C, washed, then CM
# Chain of P99 cephalosporinase from E. cloacae (P05364 21-381): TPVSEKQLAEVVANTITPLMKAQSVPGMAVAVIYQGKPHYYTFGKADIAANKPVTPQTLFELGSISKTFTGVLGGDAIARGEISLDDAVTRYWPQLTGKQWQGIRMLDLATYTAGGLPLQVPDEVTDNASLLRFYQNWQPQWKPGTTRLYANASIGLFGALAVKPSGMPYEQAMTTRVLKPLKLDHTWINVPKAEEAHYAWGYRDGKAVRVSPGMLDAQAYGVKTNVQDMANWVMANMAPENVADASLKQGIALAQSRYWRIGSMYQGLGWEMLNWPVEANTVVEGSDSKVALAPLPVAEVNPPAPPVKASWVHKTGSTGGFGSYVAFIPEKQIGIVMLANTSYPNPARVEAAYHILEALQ
# Chain of Sigma penicillinase from E. cloacae (P05364 21-381): as above
compound,measurement,setting,value
"O=C(Cc1cccs1)N[C@@H]1C(=O)N2C(C(=O)[O-])=C(C[n+]3ccccc3)CS[C@H]12 [Cephaloridine, reference compound]","Hydrolysis, µmoles/min/µg protein",B. cereus β-lactamase [1],0.038 µmoles/min/µg protein
same,"Hydrolysis, µmoles/min/µg protein",[2],0.045 µmoles/min/µg protein
same,"Hydrolysis, µmoles/min/µg protein",[3],0.026 µmoles/min/µg protein
same,"Hydrolysis, µmoles/min/µg protein",[4],0.30 µmoles/min/µg protein
"COC12C(COC(N)=O)C3=C(C(=O)C(C)=C(NCC4=C(C(=O)O)N5C(=O)C(NC(=O)Cc6ccccc6)C5SC4)C3=O)N1CC1NC12 (centres unmarked) [Example 1.2.5, 7-Phenylacetamido-3-(N^7-mitomycin C)-8-oxo-5-thia-1-azabicyclo[4.2.0]oct-2-ene-2-carboxylic acid]",conversion to mitomycin C,[5],complete conversion to mitomycin C
"COc1cccc2c1C(=O)c1c(O)c3c(c(O)c1C2=O)C[C@@](O)(C(=O)CO)C[C@@H]3O[C@H]1C[C@H](NC(=O)OCC2=C(C(=O)O)N3C(=O)C(NC(=O)Cc4ccccc4)C3SC2)[C@H](O)[C@H](C)O1 (some centres unmarked) [ADR-ceph, 3-[[(N-adriamycinyl)carbonyloxy]methyl]-7-phenylacetamido-8-oxo-5-thia-1-azabicyclo[4.2.0]oct-2-ene-2-carboxylic acid]","hydrolysis of ADR-ceph, release of adriamycin",[6],efficiently hydrolyzed
same,"Hydrolysis, µmoles/min/µg protein",B. cereus β-lactamase [1],0.016 µmoles/min/µg protein
same,"Hydrolysis, µmoles/min/µg protein",[2],0.021 µmoles/min/µg protein
same,"Hydrolysis, µmoles/min/µg protein",[3],0.0030 µmoles/min/µg protein
same,"Hydrolysis, µmoles/min/µg protein",[4],0.060 µmoles/min/µg protein
same,half-life,[7],8 h
same,half-life,[8],20 h
same,half-life,[9],≥ 12 h
"O=C(O)CN(CCN(CC(=O)O)CC(=O)O)CC(=O)O [EDTA, reference compound]",inhibition of the enzyme activity,[10],completely inhibited
O=C(Cc1ccccc1)NC1C(=O)N2C(C(=O)O)=C(COC(=O)Nc3ccc(N(CCCl)CCCl)cc3)CSC12 (centres unmarked) [CM],Km,[10]; CM as substrate,25 µM
same,Vmax,[10]; CM as substrate,250 µmol/min/mg
same,"hydrolysis of CM, release of PDM",B. cereus β-lactamase [11],"able to hydrolyze CM to release the nitrogen mustard, PDM"
same,"hydrolysis of CM, release of PDM",E. coli β-lactamase,"able to hydrolyze CM to release the nitrogen mustard, PDM"
same,IC50,[12],~100 µM
same,cytotoxic activity of CM with purified B. cereus β-lactamase (II),[12],enhanced the cytotoxic activity of CM to the level observed for PDM
same,enhancement of the activity of CM by β-lactamases,[12],50-100 fold
same,"difference in toxicity on a molar basis, CM versus PDM",Balb C nu/nu mice,> 11 fold
same,dose up to which no toxicity was observed,Balb C nu/nu mice,≥ 900 µg/injection
same,"metabolised at 2.5 h, 500 µM",in vitro,12%
same,half-life at 500 µM,physchem,0.5 h
same,cytotoxic effect of CM with the antibody-β-lactamase conjugate,H2981 lung cells,enhanced cytotoxic effect

# From patent EP0742015A1, “Prodrugs for beta-lactamase and uses thereof” (Bristol-Myers Squibb Company, priority 1990, dated 1992)
